In US11059823B2, “Small molecule inhibitors of the JAK family of kinases” (Janssen Pharmaceutica NV, priority 2016, dated 2021):
pIC50: −log10 of the molar value.

Legend:
JAK2-JH1JH2 = JAK2-JH1JH2 (Homo sapiens (Human), UniProt O60674); assay: Enzymatic inhibition assay (HTMS), JAK2; type: biochemical; conditions: 30 μM ATP; read-out: JAK2_I_JH1JH2 IC50
Text: (§1) JAK1-JH1JH2 (574-1154 with a His-GST Tag and a C-terminal tev (ENLYFQ-G) cleavage site), JAK3-JH1JH2 (512-1124 with a GST Tag and a C-terminal tev (ENLYFQ-G) cleavage site), and Tyk2-JH1JH2 (8H_tev_580-1182-C936A-C1142A with a C-terminal tev (ENLYFQ-G) cleavage site) were purified internally. […] LC/MS grade water and acetonitrile (ACN), were purchased from HoneyWell, Burdick & Jackson (Muskegon, Mich., USA). Dimethylsulfoxide 99.8% (DMSO) and trifluoroacetic acid 99.5% (TFA) were purchased from EMD Chemical (Gibbstown, N.J., USA). Adenosine triphosphate (ATP), 4-morpholinepropanesulfonic acid (MOPS), magnesium chloride (MgCl2), ethylenediaminetetraacetic acid (EDTA), dithiothreitol (DTT), formic acid >95% (FA) and Tween-20 were purchased from Sigma (St Louis, Mo., USA). 384-well polypropylene plates, Cat#781280 were purchased from Greiner (Monroe, N.C.), RapidFire™ cartridge A C4 Column (Agilent Technologies, Santa Clara, Calif.). […]
(§2) 11-point dosing series were made for each compound by serially diluting 1:3 or 1:4 in DMSO, with point 12 being a DMSO control. […] Compound inhibition was assessed by a decrease of the phosphorylated product levels in sample wells compared to the non-inhibited enzyme reaction. […]

Tyk2-JH1JH2 = Tyk2-JH1JH2 (Homo sapiens (Human), UniProt P29597, C1142A/C936A); assay: Enzymatic inhibition assay (HTMS), Tyk2; type: biochemical; conditions: 50 μM ATP; read-out: Tyk2_I_JH1JH2 IC50
Sequence of Tyk2-JH1JH2 (P29597 580-1182 C936A/C1142A): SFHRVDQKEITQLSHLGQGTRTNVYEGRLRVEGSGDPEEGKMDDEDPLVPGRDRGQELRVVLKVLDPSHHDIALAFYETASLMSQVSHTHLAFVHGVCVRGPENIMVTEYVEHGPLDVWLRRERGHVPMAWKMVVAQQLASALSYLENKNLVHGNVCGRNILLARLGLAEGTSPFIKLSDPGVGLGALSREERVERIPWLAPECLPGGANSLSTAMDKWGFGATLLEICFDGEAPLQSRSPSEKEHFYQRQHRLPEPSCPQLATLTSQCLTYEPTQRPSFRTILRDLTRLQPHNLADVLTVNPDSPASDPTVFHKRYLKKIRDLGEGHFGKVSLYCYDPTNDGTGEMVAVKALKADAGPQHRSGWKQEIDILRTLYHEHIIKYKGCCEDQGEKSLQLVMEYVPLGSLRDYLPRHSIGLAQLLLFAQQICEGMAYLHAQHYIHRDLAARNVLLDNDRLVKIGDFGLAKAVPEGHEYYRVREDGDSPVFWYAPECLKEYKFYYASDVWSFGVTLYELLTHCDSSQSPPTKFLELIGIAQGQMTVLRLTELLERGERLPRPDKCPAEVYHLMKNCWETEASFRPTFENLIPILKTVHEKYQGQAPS
Text: as §1, §2

physchem = conditions: thermodynamic from solid
JAK3-JH1JH2 = JAK3-JH1JH2 (Homo sapiens (Human), UniProt P52333); assay: Enzymatic inhibition assay (HTMS), JAK3; type: biochemical; conditions: 150 μM ATP; read-out: JAK3_I_JH1JH2 IC50
Sequence of JAK3-JH1JH2 (P52333 512-1124): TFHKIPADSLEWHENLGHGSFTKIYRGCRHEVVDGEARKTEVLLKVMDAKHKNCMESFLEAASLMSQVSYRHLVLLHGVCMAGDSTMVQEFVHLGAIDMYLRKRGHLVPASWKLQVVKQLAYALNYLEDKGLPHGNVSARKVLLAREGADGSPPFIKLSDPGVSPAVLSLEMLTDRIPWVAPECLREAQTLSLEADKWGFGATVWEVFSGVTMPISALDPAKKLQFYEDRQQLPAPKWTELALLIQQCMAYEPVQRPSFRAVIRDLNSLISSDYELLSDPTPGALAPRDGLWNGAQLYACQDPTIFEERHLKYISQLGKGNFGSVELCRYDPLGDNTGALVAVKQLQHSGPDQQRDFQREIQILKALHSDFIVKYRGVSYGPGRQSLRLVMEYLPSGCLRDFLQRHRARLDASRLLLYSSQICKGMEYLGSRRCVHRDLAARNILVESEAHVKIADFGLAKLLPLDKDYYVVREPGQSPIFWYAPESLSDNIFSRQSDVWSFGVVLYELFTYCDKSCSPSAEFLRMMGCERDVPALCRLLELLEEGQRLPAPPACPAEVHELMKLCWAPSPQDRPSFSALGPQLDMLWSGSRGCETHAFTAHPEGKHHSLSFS
Text: as §1, §2

P-gp (MDR1) = assay: MDCK-MDR1 permeability assay; type: in vitro ADME; conditions: dog
Protocol: Permeability measurements were conducted according to the Cyprotex protocol using the MDCK-MDR1 cell line obtained from the NIH (Rockville, Md., USA). […] The cells in this assay form a cohesive sheet of a single cell layer filing the surface area of the culture dish, also known as a confluent monolayer, and on day four the test compound was added to the apical side of the membrane and the transport of the compound across the monolayer was monitored over a time period of 60 min.
Test compounds were dissolved in DMSO at a concentration of 10 mM. The dosing solutions were prepared by diluting test compound with assay buffer (Hanks Balanced Salt Solution), pH 7.4, at a final concentration of 5 μM. For assessment of apical to basolateral (“A-B”) permeability, buffer was removed from the apical compartment and replaced with test compound dosing solution with or without the permeability glycoprotein (“PgP”, “P-gP”, “Pgp” or “P-gp”) inhibitor elacridar (2 μM). For assessment of basolateral to apical (“B-A”) permeability, buffer was removed from the companion plate and replaced with test compound dosing solution. Incubations were carried out in duplicate at 37° C. in an atmosphere of 5% CO2 with a relative humidity of 95%. Each assay included the reference markers propranolol (high permeability) and prazosin (PgP substrate). After incubation for 60 minutes, apical and basolateral samples were diluted and test compounds quantified by LC/MS/MS using an 8-point calibration in the range 0.0039 to 3 μM with appropriate dilution of the samples (receiver dilution factor=1; donor and Co dilution factor=10). The permeability coefficient (Papp) for each compound was calculated from the following equation: Papp=(dQ/dt)/(C0×S), where dQ/dt is the rate of permeation of the drug across the cells, C0 is the donor compartment concentration at time zero, and S is the area of the cell monolayer.
Papp(A-B) gives an indication of permeation extent across the cells in this assay, which is envisaged to model the transcellular transport across Pgp-expressing cells, such as Pgp-expressing gastrointestinal tract cells.

Sequence of JAK2-JH1JH2 (O60674 532-1132): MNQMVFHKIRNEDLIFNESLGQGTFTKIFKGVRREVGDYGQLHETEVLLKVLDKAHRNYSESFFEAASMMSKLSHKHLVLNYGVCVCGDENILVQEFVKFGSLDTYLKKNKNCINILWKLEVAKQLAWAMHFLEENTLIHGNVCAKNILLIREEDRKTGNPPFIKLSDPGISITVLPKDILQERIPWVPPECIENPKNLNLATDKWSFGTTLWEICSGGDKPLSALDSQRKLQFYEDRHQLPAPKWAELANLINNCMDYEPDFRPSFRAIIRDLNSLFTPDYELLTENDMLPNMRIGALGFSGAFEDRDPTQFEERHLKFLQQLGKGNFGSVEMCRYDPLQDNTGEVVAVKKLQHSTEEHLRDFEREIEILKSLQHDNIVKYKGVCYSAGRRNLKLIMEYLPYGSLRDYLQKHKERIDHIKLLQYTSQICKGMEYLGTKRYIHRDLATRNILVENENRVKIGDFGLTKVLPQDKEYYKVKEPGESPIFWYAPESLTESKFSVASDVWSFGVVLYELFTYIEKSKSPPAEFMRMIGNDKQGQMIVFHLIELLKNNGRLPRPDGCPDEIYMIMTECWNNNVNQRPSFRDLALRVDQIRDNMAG

N#CC[C@H]1CC[C@H](n2c(-c3c[nH]cn3)nc3cnc4[nH]ccc4c32)CC1 [Ex. 2, 2-((1r,4r)-4-(2-(1H-Imidazol-4-yl)imidazo[4,5-d]pyrrolo[2,3-b]pyridin-1(6H)-yl)cyclohexyl)acetonitrile]
pIC50 (JAK2-JH1JH2): 9.00 | pIC50 (Tyk2-JH1JH2): 8.82 | solubility (physchem; pH 6.5, fassif): > 400 µM | solubility (physchem; simulated gastric fluid): > 400 µM | pIC50 (JAK3-JH1JH2): 7.47 | Papp A→B at 60 min, 5 µM (P-gp (MDR1); MDCK-MDR1, pH 7.4, apical-to-basolateral, without elacridar, 5 μM, 60 min): 11 nm/s | Papp B→A at 60 min, 5 µM (P-gp (MDR1); MDCK-MDR1, pH 7.4, basolateral-to-apical, 5 μM, 60 min): 48 nm/s | efflux ratio at 60 min, 5 µM (P-gp (MDR1); pH 7.4, MDCK-MDR1, 5 μM, read-out: Papp(B-A)/Papp(A-B) (efflux ratio)): 4.4
